biological target: T1, GABA A α5 (Homo sapiens, UniProt P18507+P31644); test: [3H]flumazenil competition binding, human GABA A α5β3γ2 receptors in HEK293 cell membranes; settings: human receptor α5β3γ2 transiently transfected in HEK293; 0.5 nM [3H]flumazenil; 1 hour at 4° C.; means of two determinations; read-out: hKi GABA A α5
T1 construct: expressed in transfected cells; host or cells: HEK293 cells, transiently transfected; membranes prepared from cell pellets
Description: The affinity of compounds at GABA A receptor subtypes was measured by competition for [3H]flumazenil (85 Ci/mmol; Roche) binding to HEK293 cells expressing rat (stably transfected) or human (transiently transfected) receptors of composition α1β3γ2, α2β3γ2, α3β3γ2 and α5β3γ2.
Cell pellets were suspended in Krebs-tris buffer (4.8 mM KCl, 1.2 mM CaCl2, 1.2 mM MgCl2, 120 mM NaCl, 15 mM Tris; pH 7.5; binding assay buffer), homogenized by polytron for ca. 20 sec on ice and centrifuged for 60 min at 4° C. (50000 g; Sorvall, rotor: SM24=20000 rpm). The cell pellets were re-suspended in Krebs-tris buffer and homogenized by polytron for ca. 15 sec on ice. Protein was measured (Bradford method, Bio-Rad) and aliquots of 1 mL were prepared and stored at −80° C.
Assays were incubated to equilibrium for 1 hour at 4° C. and harvested onto GF/C uni-filters (Packard) by filtration using a Packard harvester and washing with ice-cold wash buffer (50 mM Tris; pH 7.5). After drying, filter-retained radioactivity was detected by liquid scintillation counting. Ki values were calculated using Excel-Fit (Microsoft) and are the means of two determinations.

First: CCCCc1noc(C)c1COc1cc(C(=O)NCCO)[nH]n1 [Example 33, 5-(3-Butyl-5-methyl-isoxazol-4-ylmethoxy)-2H-pyrazole-3-carboxylic acid (2-hydroxyethyl)-amide]
Second: CCCCc1noc(C)c1COc1cc(C(=O)NN(C)C)[nH]n1 [Example 38, 5-(3-Butyl-5-methyl-isoxazol-4-ylmethoxy)-2H-pyrazole-3-carboxylic acid N′,N′-dimethylhydrazide]
The Ki of the first is 1.9-fold lower: 20.2 nM for the first, 38.7 nM for the second.

First: CCCCc1noc(C)c1COc1cc(C(=O)N2CCOCC2)[nH]n1 [Example 36, [5-(3-Butyl-5-methyl-isoxazol-4-ylmethoxy)-2H-pyrazol-3-yl]morpholin-4-yl-methanone]
Second: CCCCc1noc(C)c1COc1cc(C(=O)NN2CCOCC2)[nH]n1 [Example 39, 5-(3-Butyl-5-methyl-isoxazol-4-ylmethoxy)-2H-pyrazole-3-carboxylic acid morpholin-4-ylamide]
The Ki of the first is 9.2-fold higher: 53.5 nM for the first, 5.8 nM for the second.

CCCCc1noc(C)c1COc1cc(C(=O)NN2CCCC2)[nH]n1 [Example 40, 5-(3-Butyl-5-methyl-isoxazol-4-ylmethoxy)-2H-pyrazole-3-carboxylic acid pyrrolidin-1-ylamide] and CCCCc1noc(C)c1COc1cc(C(=O)NN2CCCCC2)[nH]n1 [Example 41, 5-(3-Butyl-5-methyl-isoxazol-4-ylmethoxy)-2H-pyrazole-3-carboxylic acid piperidin-1-ylamide] are within 1.5-fold of each other in Ki: 21.5 nM for the first, 27.2 nM for the second.

Going from Cc1onc(-c2ccccc2)c1COc1cc(C(=O)NCCO)n(C)n1 [Example 42, 2-Methyl-5-(5-methyl-3-phenyl-isoxazol-4-ylmethoxy)-2H-pyrazole-3-carboxylic acid (2-hydroxy-ethyl)-amide] to Cc1onc(-c2ccccc2)c1COc1cc(C(N)=O)n(C)n1 [Example 45, 2-Methyl-5-(5-methyl-3-phenyl-isoxazol-4-ylmethoxy)-2H-pyrazole-3-carboxylic acid amide], the Ki rises from 15.9 nM to 47.3 nM (3-fold). The first binds more tightly here.

First: Cc1onc(-c2ccccc2)c1COc1cc(C(=O)NC2CCOCC2)n(C)n1 [Example 44, 2-Methyl-5-(5-methyl-3-phenyl-isoxazol-4-ylmethoxy)-2H-pyrazole-3-carboxylic acid (tetra-hydro-pyran-4-yl)-amide]
Second: Cc1onc(-c2ccccc2)c1COc1cc(C(=O)NC(C)C)n(C)n1 [Example 46, 2-Methyl-5-(5-methyl-3-phenyl-isoxazol-4-ylmethoxy)-2H-pyrazole-3-carboxylic acid isopropylamide]
The Ki of the first is 13-fold lower: 3.1 nM for the first, 40.9 nM for the second. The first binds more tightly here.

First: Cc1onc(-c2ccccc2)c1COc1cc(C(=O)NN(C)C)n(C)n1 [Example 47, 2-Methyl-5-(5-methyl-3-phenyl-isoxazol-4-ylmethoxy)-2H-pyrazole-3-carboxylic acid N′,N′-dimethyl-hydrazide]
Second: Cc1onc(-c2ccc(F)cc2)c1COc1cc(C(=O)NN(C)C)n(C)n1 [Example 48, 5-[3-(4-Fluoro-phenyl)-5-methyl-isoxazol-4-ylmethoxy]-2-methyl-2H-pyrazole-3-carboxylic acid N′,N′-dimethyl-hydrazide]
The Ki of the first is 2.2-fold higher: 50.3 nM for the first, 23.3 nM for the second.

Compared with Cc1onc(-c2ccc(F)cc2)c1COc1cc(C(=O)NN2CCCCC2)n(C)n1 [Example 49, 5-[3-(4-Fluoro-phenyl)-5-methyl-isoxazol-4-ylmethoxy]-2-methyl-2H-pyrazole-3-carboxylic acid piperidin-1-ylamide], Cc1onc(-c2ccc(F)cc2)c1COc1cc(C(=O)NN2CCCC2)n(C)n1 [Example 51, 5-[3-(4-Fluoro-phenyl)-5-methyl-isoxazol-4-ylmethoxy]-2-methyl-2H-pyrazole-3-carboxylic acid pyrrolidin-1-ylamide] is 1.7-fold lower in Ki: 19.3 nM for the first, 11.4 nM for the second.

Molecule Cc1onc(-c2ccc(F)cc2)c1COc1cc(C(=O)NN2CCOCC2)n(C)n1 [Example 50, 5-[3-(4-Fluoro-phenyl)-5-methyl-isoxazol-4-ylmethoxy]-2-methyl-2H-pyrazole-3-carboxylic acid morpholin-4-ylamide] has a Ki of 3.5 nM.
